The test system of series [1] is Salmonella typhimurium TA98. As to the kind of experiment: Ames test. The following applies: CPL500036 5000µg/plate, n=3.
Series [2] relates to Salmonella typhimurium TA100. As to conditions: CPL500036 5000µg/plate, n=3.
For series [3], the system named is Salmonella typhimurium TA1535. The following applies: CPL500036 5000µg/plate, n=3.
The subject of series [4] is Salmonella typhimurium TA1537. Kind of series: Ames test. The following applies: CPL500036 5000µg/plate, n=3. For orientation: The Ames test detects mutagens through reverse mutation in bacteria.
For series [5], the system named is Escherichia coli WP2 uvrA. Kind of series: Ames test. The following applies: CPL500036 5000µg/plate, n=3.
Series [6] deals with cardiac 3D spheroids (cardiomyocytes and fibroblasts derived from human pluripotent cells). Kind of series: Cardiotoxicity in spontaneously beating cardiac 3D spheroids. The series is classed as cell-based. The following applies: 3D cardiac spheroids; for AC50: Homo sapiens. How it is done:
The cardiotoxic effect of CPL500036 was evaluated in spontaneously beating cardiac 3D spheroids (comprising cardiomyocytes and fibroblasts derived from human pluripotent cells) by Cyprotex (Cheshire, United Kingdom). Experiments were carried out in accordance with the service-provider’s protocol. Specific parameters of cell health were assessed: number and size of spheroids, DNA structure, intracellular level of calcium ions, mitochondrial mass, membrane potential and cellular ATP. […] During the 14 days of the experiment, redosing occurred on three occasions. Spheroid hypertrophy was measured on days 3, 7, 10, and 14 using the “brightfield live cellular imaging” mode of a Cellomics ArrayScan® XTI system (Thermo Scientific, Waltham, MA, United States). On day-14, the spheroid model was analyzed using the confocal mode of Cellomics ArrayScan XTI following incorporation of appropriate fluorescent dyes. Subsequently, cellular ATP content was measured using CellTiterGlo® (Promega, Fitchburg, WI, United States). Mitomicyn C and dasatinib were used as positive controls (Supplementary Table S1).
concentration at which 50% maximum effect is observed for each cell health parameter; NR - No response observed.

A further series relates to Sprague–Dawley rats. Kind of series: Hyperprolactinemia: plasma prolactin before and 2 h after administration. The series is classed as in vivo. The following applies: 3 mg/kg, p.o., n = 4. How it is done:
Four male Sprague–Dawley rats (∼10 weeks; Mossakowski Medical Research Institute, Polish Academy of Sciences, Warsaw, Poland), underwent gavage with CPL500036 (3 mg/kg), haloperidol (3 mg/kg; as a positive control) or vehicle. Rats were fasted for 16 h before administration. Blood samples from the tail vein were collected immediately before and 2 h after administration. Plasma was obtained by centrifugation (1,600 × g, 20 min, 4°C) of blood samples collected on K2EDTA, and was stored at −80°C until analyses. The prolactin concentration in plasma samples was determined using the Prolactin (rat) EIA kit (Bertin Rockville, MD, United States) according to the manufacturer’s protocol. The prolactin concentration difference was assessed as follows: %∆prolactin=cprolactin, 2h−cprolactin, 0h/[…] (1)

On the set-up of series [7]: method as in ref Megens A. A. H. P. et al., 2014; Suzuki et al., 2015; Arakawa et al., 2016. The following applies: compared with marketed antipsychotics; ref Megens A. A. H. P. et al., 2014; Suzuki et al., 2015; Arakawa et al., 2016; cited from earlier work.
The target of a further series is PDE10A (Homo sapiens, UniProt Q9Y233). On the set-up: method as in ref Schmidt et al., 2008; Grauer et al., 2009; Harada et al., 2015. As to conditions: ref Schmidt et al., 2008; Grauer et al., 2009; Harada et al., 2015; read-out: IC50 against PDE10A; cited from earlier work.
Chain of PDE10A (Q9Y233 whole entry, species assumed): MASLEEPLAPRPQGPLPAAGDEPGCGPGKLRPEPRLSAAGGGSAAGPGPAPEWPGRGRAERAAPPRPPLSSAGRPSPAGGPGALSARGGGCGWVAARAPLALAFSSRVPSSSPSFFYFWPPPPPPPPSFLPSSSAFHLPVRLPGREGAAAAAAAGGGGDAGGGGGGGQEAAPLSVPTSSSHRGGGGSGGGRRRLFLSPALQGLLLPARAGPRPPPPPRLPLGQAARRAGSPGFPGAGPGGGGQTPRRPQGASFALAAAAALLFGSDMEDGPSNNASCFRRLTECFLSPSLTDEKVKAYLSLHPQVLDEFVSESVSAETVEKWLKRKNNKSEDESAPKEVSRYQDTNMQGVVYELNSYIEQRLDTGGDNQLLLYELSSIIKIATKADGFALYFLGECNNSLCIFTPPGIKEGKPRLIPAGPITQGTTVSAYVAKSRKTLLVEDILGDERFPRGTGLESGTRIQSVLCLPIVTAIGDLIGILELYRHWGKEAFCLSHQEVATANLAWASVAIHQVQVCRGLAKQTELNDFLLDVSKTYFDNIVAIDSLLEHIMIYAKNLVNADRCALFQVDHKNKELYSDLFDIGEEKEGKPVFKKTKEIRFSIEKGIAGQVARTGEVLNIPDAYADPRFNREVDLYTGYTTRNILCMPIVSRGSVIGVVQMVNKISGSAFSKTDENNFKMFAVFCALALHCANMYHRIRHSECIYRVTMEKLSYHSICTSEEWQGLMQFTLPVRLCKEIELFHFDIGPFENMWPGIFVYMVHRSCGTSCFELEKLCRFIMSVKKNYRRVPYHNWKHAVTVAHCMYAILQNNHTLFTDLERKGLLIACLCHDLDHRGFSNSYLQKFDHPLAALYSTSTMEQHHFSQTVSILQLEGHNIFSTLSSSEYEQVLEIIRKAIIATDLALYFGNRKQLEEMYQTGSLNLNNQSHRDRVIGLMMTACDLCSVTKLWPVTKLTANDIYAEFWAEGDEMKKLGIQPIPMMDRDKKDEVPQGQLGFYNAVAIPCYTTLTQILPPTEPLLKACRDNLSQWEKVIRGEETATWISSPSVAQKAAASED
Setting [8] is: With metabolic activation (+S9 mix), 2AA 2µg/plate.
Where [9] appears, read: Without metabolic activation (-S9 mix), 9AA 50µg/plate.
Setting [10] is: read-out: Mitochondrial mass AC50.
[11] abbreviates: read-out: Mitochondrial membrane potential AC50.
The mark [12] stands for this setting: Without metabolic activation (-S9 mix), NPD 4µg/plate.
[13] abbreviates: Without metabolic activation (-S9 mix), SAZ 2µg/plate.

The AC50 is the concentration at which the activity in the assay is half-maximal. One may read the IC50 as the midpoint of a concentration-inhibition curve.

Like-named read-outs stand apart in the source and are kept apart here.

Turning to `Nc1ccc2cc3ccccc3cc2c1` [2AA, 2-aminoanthracene, reference compound], the Mutation rate in [1] (setting [8]) was determined as 84.13; in [2] (setting [8]) it was 19.26; in [3] (setting [8]), 11.38; in series [4] (setting [8]) it was 9.0; in series [5] (setting [8]) it was 8.49. In addition, the “Revertants Mean±SD” value is 1682.7±156.02 in [1] (setting [8]); 1464.0±361.88 in series [2] (setting [8]); 159.3±15.57 in [3] (setting [8]); 78.0±7.94 in [4] (setting [8]); 203.7±3.79 in series [5] (setting [8]).
Regarding `Nc1c2ccccc2nc2ccccc12` [9AA, 9-Aminoacridine, reference compound], in series [4] (setting [9]), the Mutation rate was found to be 50.65 and the “Revertants Mean±SD” value is given as 287.0±65.60.
Regarding `Cc1nc(Nc2ncc(C(=O)Nc3c(C)cccc3Cl)s2)cc(N2CCN(CCO)CC2)n1` [Dasatinib], the “Calcium MEC” value in series [6] is listed as 43.0 µM. In addition, the “Cellular ATP MEC” value in series [6] was determined as 0.075 µM. Besides, the “DNA structure MEC” value in series [6] amounted to 2.92 µM. For the same molecule, in series [6], the “Mitochondrial mass MEC” value was found to be 2.43 µM. Further, the “Mitochondrial membrane potential MEC” value in [6] came out at 16.82 µM. In addition, the “Spheroid size MEC” value in series [6] worked out at 0.469 µM. For the same molecule, the AC50 in series [6] (read-out: Calcium AC50) is more than 50 µM; in [6] (read-out: Cellular ATP AC50), 0.374 µM; in [6] (read-out: DNA structure AC50) it was more than 50 µM; in [6] (setting [10]), more than 5 µM; in [6] (setting [11]) it was 26.4 µM; in series [6] (read-out: Spheroid count AC50) it was more than 50 µM. Besides, in [6] (read-out: Spheroid size AC50), the AC50 amounted to 23.4 µM.
As to `O=C(CCCN1CCC(O)(c2ccc(Cl)cc2)CC1)c1ccc(F)cc1` [Haloperidol], in the series with Sprague–Dawley rats, the “prolactin release (relative change in the prolactin level before and 2 h after administration)” value is recorded as “induced significant prolactin release”.
Consider `COCCc1ccc(-c2c(C)nc3c(N4CCOCC4)nccn23)cn1` [JNJ-42314,415], for which, in series [7], the cataleptic effect entry was “weaker than that for marketed antipsychotics and did not increase with increasing dose”.
For the molecule `COS(C)(=O)=O` [MMS, Methyl methanesulfonate, reference compound], the Mutation rate in series [5] (Without metabolic activation (-S9 mix), MMS 2µg/plate) was found to be 33.85.
Regarding `CO[C@@]12[C@H](COC(N)=O)C3=C(C(=O)C(C)=C(N)C3=O)N1C[C@@H]1N[C@@H]12` [Mitomycin C], in series [6], the “Calcium MEC” value is reported as 79.1 µM, the “Cellular ATP MEC” value is reported as 0.243 µM, the “DNA structure MEC” value is on record as 0.704 µM and the “Mitochondrial mass MEC” value is less than 0.04 µM. In series [6], the “Mitochondrial membrane potential MEC” value was determined as 1.89 µM, the “Spheroid count MEC” value is on record as 2 µM and the “Spheroid size MEC” value is 2.97 µM. Further, the AC50 in [6] (read-out: Calcium AC50) was more than 100 µM. In addition, the AC50 in series [6] (read-out: Cellular ATP AC50) is 0.766 µM. Moreover, in [6] (read-out: DNA structure AC50), the AC50 turned out to be 4.41 µM. For the same molecule, the AC50 in series [6] (setting [10]) came to 0.731 µM. The AC50 in series [6] (setting [11]) was 3.88 µM. In addition, the AC50 in [6] (read-out: Spheroid size AC50) was more than 100 µM.
For `Nc1ccc([N+](=O)[O-])cc1N` [NPD, 4-Nitro-1,2-phenylenediamine, reference compound], in series [1] (setting [12]), the Mutation rate amounted to 18.6 and the “Revertants Mean±SD” value is 335.0±57.51.
Consider `Cc1ncc(C)n2nc(/C=C/c3nc(N4CCCC4)cc(N4CCOCC4)n3)nc12` [PDM-042, (E )-4-(2-(2-(5,8-dimethyl-[1,2, 4]triazolo[1,5-a]pyrazin-2-yl)vinyl)-6-(pyrrolidin-1-yl)pyrimidin-4-yl)morpholine], for which the cataleptic effect result in series [7] is “weaker than that for marketed antipsychotics and did not increase with increasing dose”.
In the case of `[N-]=[N+]=[N-].[Na+]` [SAZ, Sodium Azide, reference compound], in series [2] (setting [13]), the Mutation rate turned out to be 12.76 and the “Revertants Mean±SD” value is given as 1093.0±64.66. Also, in series [3] (setting [13]), the Mutation rate was found to be 74.21 and the “Revertants Mean±SD” value is given as 940.0±91.95.
Take `COc1cn(-c2ccc(-n3cccn3)cc2F)nc(-c2ccnn2-c2ccccc2)c1=O` [TAK-063]: the cataleptic effect result in [7] was “weaker than that for marketed antipsychotics and did not increase with increasing dose”.
`FC(F)(F)Cn1cc(-c2ccncc2)c(-c2ccc(OCc3ccc4ccccc4n3)cc2)n1` [TP-10]: at PDE10A, the IC50 was 0.0003 µM.

Values taken from article PMC9681820, “A PDE10A inhibitor CPL500036 is a novel agent modulating striatal function devoid of most neuroleptic side-effects” (Frontiers in Pharmacology, 2022).
